Tests used:
human PBMC = assay: Th ratio from IFN-γ and IL-10 ELISPOT, human PBMC screening; type: cell-based
Method: Vaccine. The vaccine consisted of the Th1-selective epitopes CDC25B-p132-156, COX2-p76-93, COX2-p276-295, EGFR-p880-895, and p962-976. The Th selective epitopes were determined in human PBMC screening by calculating the ratio of the product of the mean magnitude and percent incidence of response for IFN-γ and IL-10 ELISPOT assays (IFN-γ incidence X magnitude/IL-10 incidence X magnitude). Ratios greater than 7 defined Th1-selective epitopes (See Table 4).

[1] = tested on: tumor infiltrating lymphocytes; assay: Immunophenotyping of tumor infiltrating lymphocytes, AOM-treated mice; type: in vivo
Method: (§1) Immunophenotyping. After removing up to 10 polyps in ApcMin/+, and 1-2 polyps in AOM treated mice, remaining tumors were removed from the intestinal tissue with forceps and applied to a 70 μm filter, washed through with flow cytometry buffer (PBS/1% FBS/2 mM EDTA) and red cells lysed. […] Prior to surface staining, cells were stained with Fixable viability dye 450 (eBiosciences; 1:1000) in PBS and then washed in flow cytometry buffer. Intracellular staining was performed using the FOXP3 buffer set (Thermo Fisher Scientific). Antibodies were obtained from BD Bioscience, Biolegend or Thermo Fisher Scientific. […] Analysis was performed on FACS Canto RUO and data analyzed using FlowJo software (BD Biosciences). […] Results are reported as a percentage of total cell number or a percentage of a specific cell population.

[2] = tested on: tumors from Apc^Min/+ mice; assay: Immunohistochemistry of tumors (CD8, PD-L1), ApcMin/+ mice; type: in vivo; settings: naproxen intermittently or continuously, p<0.001
Method: Immunohistochemistry. Tumors removed from the intestine were covered with Tissue-Tek O.C.T Compound in a cryomold and stored at −80° C. Frozen blocks were sectioned and fixed with 75% acetone/25% methanol for 5 minutes. The slides were washed thrice with PBS and 10% goat serum was added for 1 hour at room temperature followed by an anti-mouse PD-L1 (abcam; clone: MIH6; 1/100 dilution) or anti-mouse CD8 (AbD Serotec; clone KT15; 1/200 dilution) overnight at 4° C. After washing, the slides were incubated with AlexaFluor 488 anti-rat IgG (abcam; 1:1000 dilution) for 1 hour at room temperature. Positive cells were counted in three 20× microscopic fields and expressed as the mean percent of total cells.

[3] = tested on: tumor infiltrating lymphocytes; assay: Immunophenotyping of tumor infiltrating lymphocytes, ApcMin/+ mice; type: in vivo; settings: APC^Min/+
Method: as §1

[4] = tested on: splenocytes stimulated with the vaccine peptide pool; assay: Antigen-specific IFN-γ ELISPOT of splenocytes, ApcMin/+ mice; type: in vivo; settings: any regimen of naproxen, adjuvant only
Description: (§2) Analysis of peptide-specific T-cell responses. […] Data are reported as pg/ml.

Granzyme B = Granzyme B ELISA of ELISPOT supernatant, ApcMin/+ mice; type: in vivo
Description: as §2

COX2-p276-295: peptide EVFGLVPGLMMYATIWLREH (SEQ ID NO: 3)
Th ratio (IFN-γ incidence X magnitude/IL-10 incidence X magnitude) (human PBMC): 17

CDC25b-p132-156: peptide IQAASRIIRNEQFAIRRFQSMPVRL (SEQ ID NO: 1)
Th ratio (IFN-γ incidence X magnitude/IL-10 incidence X magnitude) (human PBMC): 186

COX-2-p76-93: peptide YILTHFKGFWNVVNNIPF (SEQ ID NO: 2)
Th ratio (IFN-γ incidence X magnitude/IL-10 incidence X magnitude) (human PBMC): 7

COc1ccc2cc([C@H](C)C(=O)O)ccc2c1 [naproxen]
% CD4 of CD3+ ([1]; CON naproxen): 61%
% CD8 of CD3+ ([1]; CON naproxen): 12%
% CM of CD4+ ([1]; CON naproxen): 6%
% CM of CD8+ ([1]; CON naproxen): 8%
% EM of CD4+ ([1]; CON naproxen): 43%
% EM of CD8+ ([1]; CON naproxen): 52%
% Foxp3 of CD4 ([1]; CON naproxen): 5%
% GATA3 of CD4+ ([1]; CON naproxen): 2%
% MDSC ([1]; CON naproxen): 6%
% PD1 of CD4+ ([1]; CON naproxen): 3%
% PD1 of CD8+ ([1]; CON naproxen): 4%
% Tbet of CD3 ([1]; CON naproxen): 10%
% CD4 of CD3+ ([1]; INT naproxen): 66%
% CD8 of CD3+ ([1]; INT naproxen): 11%
% CM of CD4+ ([1]; INT naproxen): 6%
% CM of CD8+ ([1]; INT naproxen): 6%
% EM of CD4+ ([1]; INT naproxen): 48%
% EM of CD8+ ([1]; INT naproxen): 53%
% Foxp3 of CD4 ([1]; INT naproxen): 5%
% GATA3 of CD4+ ([1]; INT naproxen): 3%
% MDSC ([1]; INT naproxen): 6%
% PD1 of CD4+ ([1]; INT naproxen): 4%
% PD1 of CD8+ ([1]; INT naproxen): 4%
% Tbet of CD3 ([1]; INT naproxen): 9%
tumor cell expression of PD-L1 [2]: reduced
tumor infiltrating CD8+ T-cells [2]: increased
% CD4 of CD3+ ([3]; CON naproxen): 30%
% CD8 of CD3+ ([3]; CON naproxen): 35%
% CM of CD4+ ([3]; CON naproxen): 14%
% CM of CD8+ ([3]; CON naproxen): 4%
% EM of CD4+ ([3]; CON naproxen): 60%
% EM of CD8+ ([3]; CON naproxen): 48%
% Foxp3 of CD4 ([3]; CON naproxen): 4%
% GATA3 of CD4+ ([3]; CON naproxen): 5%
% MDSC ([3]; CON naproxen): 1%
% PD1 of CD4+ ([3]; CON naproxen): 3%
% PD1 of CD8+ ([3]; CON naproxen): 7%
% Tbet of CD3 ([3]; CON naproxen): 9%
% CD4 of CD3+ ([3]; INT naproxen): 14%
% CD8 of CD3+ ([3]; INT naproxen): 15%
% CM of CD4+ ([3]; INT naproxen): 18%
% CM of CD8+ ([3]; INT naproxen): 2%
% EM of CD4+ ([3]; INT naproxen): 41%
% EM of CD8+ ([3]; INT naproxen): 44%
% Foxp3 of CD4 ([3]; INT naproxen): 2%
% GATA3 of CD4+ ([3]; INT naproxen): 4%
% MDSC ([3]; INT naproxen): 4%
% PD1 of CD4+ ([3]; INT naproxen): 5%
% PD1 of CD8+ ([3]; INT naproxen): 7%
% Tbet of CD3 ([3]; INT naproxen): 11%
antigen-specific IFN-γ [4]: did not result in increased
Granzyme B levels, in words (Granzyme B): did not result in increased
